Patent US11673861B2, “Perfluorinated 1-alkoxypropenes, compositions, and methods and apparatuses for using same” (priority 2017, dated 2023)

Assays:
[1] = Dielectric breakdown strength, ASTM D877-13 Procedure A; assay type: physicochemical; conditions: electrode spacing 2.54 mm, rate of rise 500 V/sec
Description: (§1) Dielectric breakdown strength and dielectric constant were measured for PE-1, PE-2, CE-1 to CE-4. The dielectric constants presented in Table 7, below, were measured using the broadband Novocontrol Dielectric Spectrometer per ASTM D150-11. The dielectric breakdown strengths presented in Table 7 were measured according to ASTM D877-13, Procedure A, with the following modification: spacing between the electrodes was 2.54 mm and rate of rise was 500 V/sec.

[2] = Dielectric constant, ASTM D150-11; assay type: physicochemical
Description: as §1

rats = experiment: Toxicity screening study in rats, 4 h inhalation LC-50; assay type: in vivo
Description: MA-3 (50 g, 160 mmol) was charged to a 3-neck flask equipped with a water-cooled condenser and magnetic stir bar. SbF5 was then added dropwise to the stirring MA-3 and a large exotherm was observed. The resultant reaction mixture was allowed to stir at room temperature for 1 h. GC-FID analysis of the reaction mixture indicated complete consumption of the MA-3 starting material. Water was then added to the mixture with stirring. The fluorous phase was collected and distilled by concentric tube distillation (59° C., 740 mmHg, 98.7 kPa) affording the desired MP-3 (41.2 g, 82% yield) as a colorless liquid. Both E- and Z-isomers were obtained as a mixture. […] The structure was confirmed by GC-MS and ^19F NMR analyses to be that of the desired product.

[3] = Boiling point, ASTM D1120-94; assay type: physicochemical; conditions: temperature at 760 mmHg
Description: Vapor Pressure was measured using the stirred-flask ebulliometer method described in ASTM E1719-97 “Vapor Pressure Measurement by Ebulliometry.” This method is also referred to as “Dynamic Reflux.” The boiling point was measured using ASTM D1120-94 “Standard Test Method for Boiling Point of Engine Coolants.” The method used a 50-mL glass round-bottom flask. Vacuum was measured and controlled using a vacuum controller available from J-KEM Scientific, Inc., St. Louis, Mo., USA. The pressure transducer was calibrated on the day of measurement by comparison with full vacuum and with an electronic barometer located in the same laboratory. The procedure was carried out by slowly heating the material, then applying vacuum until boiling occurred and a steady dropwise reflux rate was established. Pot temperature and pressure reading were recorded, then the vacuum controller was set for a higher absolute pressure and the material was heated further until a new reflux point was established. The pressure level was raised in increments until the vapor pressure curve was obtained up to the atmospheric boiling point.
The boiling point of PE-1 is 60.1° C., which is the temperature at 760 mmHg. The boiling point of PE-2 is 88.1° C., which is the temperature at 760 mmHg.

[4] = Pour point, determined visually; assay type: physicochemical
Description: The useful liquid range of a perfluorinated 1-alkoxypropene compound of the present disclosure is between its pour point and its boiling point. A pour point is the lowest temperature at which the compound is still able to be poured. The pour point can be determined, for example, by ASTM D97-16 “Standard Test Method for Pour Point of Petroleum Products.” In one embodiment, the compounds of the present disclosure have a pour point of less than −100° C., less than −120° C., less than −130° C., or less than −140° C. Pour Point can be measured by placing a sealed glass vial containing 3 mL of the fluid into a refrigerated bath, adjusting temperature incrementally and checking for pouring. Pouring is defined as visible movement of the material during a five second count. This criterion is specified in ASTM D97-16.
One to two milliliters of the sample were placed in a vial and cooled in a bath until it solidified. The sample was then allowed to warm slowly in the bath and observed every 3-5° C.

[5] = Thermal stability with absorbents, GC-FID purity; assay type: physicochemical
Description: The thermal stability was measured by charging 1.0 g of Preparatory Example 2 into glass vials and then adding 0.10 g of absorbent. The samples were stirred for 24 h at 50° C. and then analyzed by GC-FID for decomposition and purity changes.

Row | SMILES | Dielectric Breakdown Voltage [1] | Dielectric Constant (measured at 1 kHz) [2] | 4 h inhalation LC-50 (rats) | Boiling point [3] | Pour point [4] | Purity (%) ([5]; 4 Angstrom Molecular Sieves, 24 h at 50° C.) | Purity (%) ([5]; Activated Carbon, 24 h at 50° C.) | Purity (%) ([5]; Basic Alumina, 24 h at 50° C.) | Purity (%) ([5]; K2CO3, 24 h at 50° C.) | Purity (%) ([5]; No Absorbent, 24 h at 50° C.) | Purity (%) ([5]; Silica Gel, 24 h at 50° C.)
1 | FC(F)=C(F)C(F)(F)OC(F)(F)C(F)(F)C(F)(F)F [MA-3, 1,1,2,3,3-pentafluoro-3-(perfluoropropoxy)prop-1-ene, reference compound] | 30.7 kV | 2.37 | – | – | – | – | – | – | – | – | –
2 | FC(F)=C(F)C(F)(F)OC(F)(F)C(F)(F)C(F)(F)OC(F)(F)F [MA-31, 1,1,2,3,3-Pentafluoro-3-(1,1,2,2,3,3-hexafluoro-3-(trifluoromethoxy)propoxy)prop-1-ene, reference compound] | 39.4 kV | 2.37 | – | – | – | – | – | – | – | – | –
3 | FC(OC(F)(F)C(F)(F)C(F)(F)F)=C(F)C(F)(F)F [PE-1, 1,2,3,3,3-pentafluoro-1-(perfluoropropoxy)prop-1-ene] | 41.7 kV | 2.04 | greater than 10,000 ppm | 60.1 °C | −145 °C | – | – | – | – | – | –
4 | FC(OC(F)(F)C(F)(F)C(F)(F)OC(F)(F)F)=C(F)C(F)(F)F [PE-2, 1,2,3,3,3-pentafluoro-1-(1,1,2,2,3,3-hexafluoro-3-(trifluoromethoxy)propoxy)prop-1-ene] | >60 kV | 2.04 | – | 88.1 °C | −140 °C | 99.5% | 99.5% | 99.5% | 99.3% | 99.5% | 99.4%
